Results on eleven compounds are retold here after patent US7371751B2, “Thiazole derivatives” (Hoffmann-La Roche Inc., priority 2003, dated 2008).

For one test, the target named is T1, human cannabis CB1 receptor (Homo sapiens, UniProt P21554).
T1 construct: expressed in transfected cells; host or cells: human embryonic kidney (HEK) cells, Semliki Forest Virus system, membrane preparation
T1 sequence (P21554 whole entry): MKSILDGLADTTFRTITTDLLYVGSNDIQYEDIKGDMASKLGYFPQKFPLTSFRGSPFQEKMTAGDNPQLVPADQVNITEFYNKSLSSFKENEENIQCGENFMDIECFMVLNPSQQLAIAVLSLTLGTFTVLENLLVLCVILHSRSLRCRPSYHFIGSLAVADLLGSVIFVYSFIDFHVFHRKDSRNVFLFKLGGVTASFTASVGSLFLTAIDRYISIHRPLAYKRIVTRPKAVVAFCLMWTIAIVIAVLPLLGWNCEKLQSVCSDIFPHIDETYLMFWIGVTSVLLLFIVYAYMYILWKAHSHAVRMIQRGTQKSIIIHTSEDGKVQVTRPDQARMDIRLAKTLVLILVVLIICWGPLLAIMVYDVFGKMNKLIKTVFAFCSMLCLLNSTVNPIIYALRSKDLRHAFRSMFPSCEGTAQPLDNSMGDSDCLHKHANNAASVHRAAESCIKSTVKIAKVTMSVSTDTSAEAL
Put plainly: Affinity for cannabinoid CB1 receptors, [3H]-CP-55,940 radioligand binding on HEK cell membrane preparations.
Conditions: not given
As for the experimental part: The affinity of the compounds of the invention for cannabinoid CB1 receptors was determined using membrane preparations of human embryonic kidney (HEK) cells in which the human cannabis CB1 receptor is transiently transfected using the Semliki Forest Virus system in conjunction with [3H]-CP-55,940 as radioligand. After incubation of a freshly prepared cell membrane preparation with the [3H]-ligand, with or without addition of compounds of the invention, separation of bound and free ligand was performed by filtration over glassfiber filters. Radioactivity on the filter was measured by liquid scintillation counting.
As to `COc1ccc(N(C(=O)c2ccc(Cl)cc2Cl)c2nc(C(=O)NCc3ccccc3)cs2)cc1OC` [Example 11, 2-[(2,4-Dichloro-benzoyl)-(3,4-dimethoxy-phenyl)-amino]-thiazole-4-carboxylic acidbenzylamide], the IC50 was 810 nM. On to `O=C(c1csc(N(C(=O)c2ccc(Cl)cc2Cl)c2ccc(OC(F)(F)F)cc2)n1)N1CCCC1` [Example 147, 2,4-Dichloro-N-[4-(pyrrolidine-1-carbonyl)thiazole-2-yl]-N-(4-trifluoromethoxy-phenyl)-benzamide], for which the IC50 turned out to be 490 nM. Compound `CC(C)(C)N(CCO)C(=O)c1csc(N(C(=O)c2ccc(Cl)cc2Cl)c2ccc(Cl)cc2)n1` [Example 95, 2-[(4-Chloro-phenyl)-(2,4-dichloro-benzoyl)-amino]-thiazole-4-carboxylic acid tert-butyl-(2-hydroxy-ethyl)-amide] came in with an IC50 of 260 nM.

As for `O=C(c1csc(N(C(=O)c2ccc(Cl)cc2Cl)c2ccc(Cl)cc2)n1)N1CCCC1` [Example 6, 2,4-Dichloro-N-(4-chloro-phenyl)-N-[4-(pyrrolidine-1-carbonyl)-thiazol-2-yl]-benzamide], the IC50 amounted to 610 nM. Compound `COCCN(CCOC)C(=O)c1csc(N(C(=O)c2ccc(Cl)cc2Cl)c2ccc(Cl)cc2)n1` [Example 33, 2-[(4-Chloro-phenyl)-(2,4-dichloro-benzoyl)-amino]-thiazole-4-carboxylic acid bis-(2-methoxy-ethyl)-amide] gave an IC50 of 550 nM.

Still in this test, the particulars now being: affinity for the CB1 receptor; [3H]-CP-55,940 as radioligand; HEK cell membranes; read-out: IC50.
For the compound `O=C(c1cnc(N(C(=O)c2ccc(Cl)cc2Cl)c2ccc(Cl)cc2)s1)N1CCSCC1` [Example 138, 2,4-Dichloro-N-(4-chlor-o-phenyl)-N-[5-(thio-morpholine-4-car-bonyl)-thiazol-2-yl]-benz-amide], the IC50 came out at 430 nM. For the compound `O=C(NCCc1cnc[nH]1)c1csc(N(C(=O)c2ccc(Cl)cc2Cl)c2ccc(Cl)cc2)n1` [Example 43], the IC50 was 810 nM.

Take `COc1ccc(N(C(=O)c2ccccc2Cl)c2nc(C(=O)NC3CCCCC3)cs2)cc1OC` [Example 18, 2-[(2-Chloro-benzoyl)-(3,4-dimethoxy-phenyl)-amino]-thiazole-4-carboxylic acidcyclohexylamide]: the IC50 stood at 850 nM.

Regarding `CCCCCN(C)C(=O)c1csc(N(C(=O)c2ccc(Cl)cc2Cl)c2ccc(Cl)cc2)n1` [Example 27, 2-[(4-Chloro-phenyl)-(2,4-dichloro-benzoyl)-amino]-thiazole-4-carboxylic acid methyl-pentyl-amide], the IC50 came out at 520 nM. As to `CCOC(=O)c1csc(N(C(=O)c2ccc(Cl)cc2Cl)c2ccc(OC)c(OC)c2)n1` [Example 2, 2-[(2,4-Dichloro-benzoyl)-(3,4-dimethoxy-phenyl)-amino]-thiazole-4-carboxylic acid ethyl ester], the IC50 is 510 nM.

System in another test: not given
Assay: not given
To be noted: 5, 10 and 20 mg daily; compared to placebo; cited from earlier work.
For the compound `Cc1c(C(=O)NN2CCCCC2)nn(-c2ccc(Cl)cc2Cl)c1-c1ccc(Cl)cc1` [SR 141716], the body weight result is recorded as “significantly reduced body weight”.

What is called IC50 is the concentration that gives 50% inhibition.
